Source: patent publication US20080319042A1, “Compositions and methods for treatment of liver disease” (priority 2007, published 2008)
Values joined by “and” are separate entries in the source; they are usually repeats but may differ in a detail not shown here. Equal values may be shown once.

Columns and labels:
[1] = test system: HCV; details: cited from earlier work
[2] = test system: hepatitis B surface antigen (HBsAg) production; experiment: Anti-HBSAg Assay (Procedure A); format: cell-based, hepatitis B virus; details: 50 μg/ml
Procedure: (§1) The HBV-producing human hepatoblastoma cell line, Hep G2.2.15 was maintained in DMEM supplemented with 10% fetal bovine serum (FBS), 2 mM glutamine, 100 units/ml penicillin, 100 μg/ml streptomycin and 380 μg/ml gentamicin sulfate (G418) at 37° C. under 5% CO2 in air. The Hep G2 parental cells were grown under identical conditions in MEM with Earle's salts without G418.
(§2) Hep G2.2.15 cells (190 μl) were seeded onto microtiter plates at a concentration of 20×10^4 cells/ml. The cells incubated overnight in medium without G418 after which the compound compositions (10 μl) were added. Five 2-fold serial dilutions of extracts or fractions were tested starting at 200 μg/ml final culture concentration. PBS and 3TC (lamivudine) were included as the negative and positive controls, respectively. The treated cells were incubated at 37° C. for 4 days, after which the hepatitis B surface antigen (HBsAg) production in culture supernatants was assayed. The HBsAg released into the culture medium in the presence or absence of test samples was assayed using the BIO-RAD Genetic Systems HBsAg EIA 3.0 kit (Bio-Rad, Redmond, Wash.). This enzyme immunoassay is based on the capture of HBsAg on monoclonal antibody-coated plates. Four- and twelve-fold dilutions of all culture supernatants collected were assayed in triplicate wells of the EIA plate. The percentage inhibition of HBsAg secretion in the presence of the plant samples was calculated against the negative control (PBS).

[3] = test system: Hep G2.2.15 cells; experiment: % Cell Viability in Anti-HBSAg Assay (Procedure A); format: cell-based, human; details: 50 μg/ml
Procedure: as §1, §2

[4] = test system: HBsAg; experiment: Anti-HBSAg Assay (Procedure B), HBsAg; format: cell-based, hepatitis B virus
Procedure: The HBV-producing human hepatoblastoma cell line, Hep G2 2.2.15 is maintained in DMEM supplemented with 10% fetal bovine serum (FBS), 2 mM glutamine, 100 units/ml penicillin, 100 μg/ml streptomycin at 37° C. under 5% CO2 in air.
Samples were dissolved in DMSO at the concentration of 20 mg/mL, then further diluted with DMEM medium to the appropriate concentration.
Hep G2 2.2.15 cells (120 μl) were seeded onto 96-well plates at a concentration of 2×10^5 cells/mL. The cells incubated for 72 h in the medium without G418, after which the test samples (120 μl) were added. Five 3-fold serial dilutions of samples were tested. PBS and 3TC (lamivudine) were included as the negative and positive controls, respectively. The treated cells were incubated at 37° C. for 9 days; with the medium with sample being changed each 3 days, after which the culture supernatant was removed for analysis of both the hepatitis B surface antigen (HBsAg) production and hepatitis B DNA expression.
The HBsAg released into the culture medium in the presence or absence of test material was assayed using the kit manufactured by Shanghai Siic Kehua Biotech Co., Ltd (Shanghai, China). This enzyme immunoassay is based on the capture of HBsAg on monoclonal antibody-coated plates. Four- and twelve-fold dilutions of all culture supernatants collected were assayed in triplicate wells of the kit plate. The percentage inhibition of HBsAg secretion in the presence of the compound was calculated against the negative control (PBS). The IC50 values, the dose that inhibited viruses by 50%, were calculated using non-linear regression analysis (percent survival versus concentration).

[5] = test system: HBeAg; experiment: Anti-HBSAg Assay (Procedure B), HBeAg; format: cell-based, hepatitis B virus
[6] = test system: HBV DNA; experiment: Anti-HBV DNA Assay; format: cell-based, hepatitis B virus; details: for HBV DNA copies/ml: replicates, listed as HP-S1
[7] = test system: HCV/HIV pseudovirions; experiment: microbe, parasite or virus in culture; format: cell-based, hepatitis C virus; details: FIG. 1

COc1cc2c(c(OC)c1OC)-c1ccc(OC)c(=O)cc1[C@@H](NC(C)=O)CC2 [Colchicine, colchicine]
effect on disease progression (in words) ([1]; advanced liver disease): does not slow the disease progression

COC(=O)C1=CO[C@@H](O[C@@H]2O[C@H](CO)[C@@H](O)[C@H](O)[C@H]2O)[C@H]2[C@@H]1[C@H](O)[C@H](O)[C@]2(C)O [lamiridoside]
% Control HBSAg [2]: 96%
% Inhibition [2]: 4%
% Cell Viability [3]: 100%
HBsAg Ave. ([4]; 12.5 μg/mL): 1.262
HBsAg Inhibition % ([4]; 12.5 μg/mL): 0%
HBsAg OD1 ([4]; 12.5 μg/mL): 1.305
HBsAg OD2 ([4]; 12.5 μg/mL): 1.149
HBsAg OD3 ([4]; 12.5 μg/mL): 1.331
HBsAg Ave. ([4]; 25 μg/mL): 1.474
HBsAg Inhibition % ([4]; 25 μg/mL): 0%
HBsAg OD1 ([4]; 25 μg/mL): 1.604
HBsAg OD2 ([4]; 25 μg/mL): 1.418
HBsAg OD3 ([4]; 25 μg/mL): 1.401
HBsAg Ave. ([4]; 50 μg/mL): 1.473
HBsAg Inhibition % ([4]; 50 μg/mL): 0%
HBsAg OD1 ([4]; 50 μg/mL): 1.659
HBsAg OD2 ([4]; 50 μg/mL): 1.504
HBsAg OD3 ([4]; 50 μg/mL): 1.255
HBsAg Ave. ([4]; 100 μg/mL): 1.507
HBsAg Inhibition % ([4]; 100 μg/mL): 0%
HBsAg OD1 ([4]; 100 μg/mL): 1.584
HBsAg OD2 ([4]; 100 μg/mL): 1.469
HBsAg OD3 ([4]; 100 μg/mL): 1.468
HBsAg Ave. ([4]; 200 μg/mL): 1.527
HBsAg Inhibition % ([4]; 200 μg/mL): 0%
HBsAg OD1 ([4]; 200 μg/mL): 1.546
HBsAg OD2 ([4]; 200 μg/mL): 1.504
HBsAg OD3 ([4]; 200 μg/mL): 1.531
anti-HBSAg activity (in words) ([4]; Tables 1-2): inactive
HBeAg Ave ([5]; 12.5 μg/mL): 1.369
HBeAg Inhibition % ([5]; 12.5 μg/mL): 0%
HBeAg OD1 ([5]; 12.5 μg/mL): 1.509
HBeAg OD2 ([5]; 12.5 μg/mL): 1.254
HBeAg OD3 ([5]; 12.5 μg/mL): 1.345
HBeAg Ave ([5]; 25 μg/mL): 1.512
HBeAg Inhibition % ([5]; 25 μg/mL): 0%
HBeAg OD1 ([5]; 25 μg/mL): 1.558
HBeAg OD2 ([5]; 25 μg/mL): 1.488
HBeAg OD3 ([5]; 25 μg/mL): 1.49
HBeAg Ave ([5]; 50 μg/mL): 1.642
HBeAg Inhibition % ([5]; 50 μg/mL): 0%
HBeAg OD1 ([5]; 50 μg/mL): 1.774
HBeAg OD2 ([5]; 50 μg/mL): 1.669
HBeAg OD3 ([5]; 50 μg/mL): 1.482
HBeAg Ave ([5]; 100 μg/mL): 1.558
HBeAg Inhibition % ([5]; 100 μg/mL): 0%
HBeAg OD1 ([5]; 100 μg/mL): 1.607
HBeAg OD2 ([5]; 100 μg/mL): 1.502
HBeAg OD3 ([5]; 100 μg/mL): 1.565
HBeAg Ave ([5]; 200 μg/mL): 1.450
HBeAg Inhibition % ([5]; 200 μg/mL): 0%
HBeAg OD1 ([5]; 200 μg/mL): 1.095
HBeAg OD2 ([5]; 200 μg/mL): 1.634
HBeAg OD3 ([5]; 200 μg/mL): 1.621
HBV DNA Average ([6]; 12.5 μg/ml): 1.18 × 10^6 copies/ml
HBV DNA Inhibit ([6]; 12.5 μg/ml): 0.00%
HBV DNA copies/ml ([6]; 12.5 μg/ml): 1.32E+06 copies/ml and 9.64E+05 copies/ml and 1.26E+06 copies/ml
HBV DNA Average ([6]; 25 μg/ml): 1.64 × 10^6 copies/ml
HBV DNA Inhibit ([6]; 25 μg/ml): 0.00%
HBV DNA copies/ml ([6]; 25 μg/ml): 1.95E+06 copies/ml and 1.30E+06 copies/ml and 1.67E+06 copies/ml
HBV DNA Average ([6]; 50 μg/ml): 1.16 × 10^6 copies/ml
HBV DNA Inhibit ([6]; 50 μg/ml): 0.85%
HBV DNA copies/ml ([6]; 50 μg/ml): 1.26E+06 copies/ml and 1.14E+06 copies/ml and 1.07E+06 copies/ml
HBV DNA Average ([6]; 100 μg/ml): 1.02 × 10^6 copies/ml
HBV DNA Inhibit ([6]; 100 μg/ml): 12.80%
HBV DNA copies/ml ([6]; 100 μg/ml): 7.78E+05 copies/ml and 7.93E+05 copies/ml and 1.50E+06 copies/ml
HBV DNA Average ([6]; 200 μg/ml): 8.40 × 10^5 copies/ml
HBV DNA Inhibit ([6]; 200 μg/ml): 28.20%
HBV DNA copies/ml ([6]; 200 μg/ml): 1.17E+06 copies/ml and 5.77E+05 copies/ml and 7.74E+05 copies/ml
Anti-HBV DNA activity (in words) ([6]; Table 3): inactive
inhibition of HCV/HIV entry ([7]; 100 μg/mL): inactive
anti-hepatitis C virus activity (in words) [7]: inactive

alpha-interferon
patients with a pronounced effect in reducing HCV to a very low level in the blood ([1]; chronic hepatitis C patients): about 25%
